From patent US7767659B2, “Synthesis of naturally occurring ecteinascidins and related compounds” (Pharma Mar, S.A., priority 2002, dated 2010)

Columns and labels:
[1] = test system: DU-145; test: Inhibition of cells growth by colorimetric assay (SRB); details: Homo sapiens, DU-145, 48 h; for GI50: read-out: DU145 GI50; for CC50: read-out: DU145 LC50; for IC (TGI): read-out: DU145 TGI
Outline: (§1)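 Colorimetric SRB read (490 nm) on triplicate wells after 48 h at 37 °C, 5% CO2. Dose range 10 to 10^−8 μg/ml; 5×10^3 cells/well pre-attached 18 h.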

[2] = test system: SK-BR-3; test: as above; details: Homo sapiens, SK-BR-3, 48 h; for GI50: read-out: SK-BR3 GI50; for CC50: read-out: SK-BR3 LC50; for IC (TGI): read-out: SK-BR3 TGI
Outline: as §1

[3] = test system: IGROV-ET; test: as above; details: Homo sapiens, 48 h; for GI50: read-out: IGROV-ET GI50; for CC50: read-out: IGROV-ET LC50; for IC (TGI): read-out: IGROV-ET TGI
Outline: as §1

[4] = test system: HeLa-APL; test: as above; details: Homo sapiens, 48 h; for GI50: read-out: HELA-APL GI50; for CC50: read-out: HELA-APL LC50; for IC (TGI): read-out: HELA-APL TGI
Outline: as §1

[5] = test system: K-562; test: as above; details: Homo sapiens, K562, 48 h; for GI50: read-out: K562 GI50; for CC50: read-out: K562 LC50; for IC (TGI): read-out: K562 TGI
Outline: as §1

[6] = test system: HeLa; test: as above; details: Homo sapiens, HeLa, 48 h; for GI50: read-out: HELA GI50; for CC50: read-out: HELA LC50; for IC (TGI): read-out: HELA TGI
Outline: as §1

[7] = test system: LoVo-Dox; test: as above; details: Homo sapiens, 48 h; for GI50: read-out: LOVO-DOX GI50; for CC50: read-out: LOVO-DOX LC50; for IC (TGI): read-out: LOVO-DOX TGI
Outline: as §1

[8] = test system: LNCaP; test: as above; details: Homo sapiens, LNCaP, 48 h; for GI50: read-out: LNCAP GI50; for CC50: read-out: LNCAP LC50; for IC (TGI): read-out: LNCAP TGI
Outline: as §1

[9] = test system: PANC-1; test: as above; details: Homo sapiens, PANC-1, 48 h; for GI50: read-out: PANC-1 GI50; for CC50: read-out: PANC-1 LC50; for IC (TGI): read-out: PANC-1 TGI
Outline: as §1

[10] = test system: SK-MEL-28; test: as above; details: Homo sapiens, SK-MEL-28, 48 h; for GI50: read-out: MEL-28 GI50; for CC50: read-out: MEL-28 LC50; for IC (TGI): read-out: MEL-28 TGI
Outline: as §1

[11] = test system: IGROV-1; test: as above; details: Homo sapiens, IGROV-1, 48 h; for GI50: read-out: IGROV GI50; for CC50: read-out: IGROV LC50; for IC (TGI): read-out: IGROV TGI
Outline: as §1

[12] = test system: LoVo; test: cells; details: Homo sapiens, LoVo, 48 h; for GI50: read-out: LOVO GI50; for CC50: read-out: LOVO LC50; for IC (TGI): read-out: LOVO TGI
Outline: as §1

[13] = test system: A-549; test: cells; details: Homo sapiens, A549, 48 h; for GI50: read-out: A549 GI50; for CC50: read-out: A549 LC50; for IC (TGI): read-out: A549 TGI
Outline: as §1

[14] = test system: HT-29; test: cells; details: Homo sapiens, HT-29, 48 h; for GI50: read-out: HT29 GI50; for CC50: read-out: HT29 LC50; for IC (TGI): read-out: HT29 TGI
Outline: as §1

C=CCN1[C@@H]2c3c(cc(C)c(OC)c3O)C[C@H]1[C@H](C#N)N1C2[C@@H]2SC[C@]3(NCCc4cc(OC(=O)OC(C)(C)C)c(OC)cc43)C(=O)OC[C@H]1c1c3c(c(C)c(O)c12)OCO3 (stereo partly drawn) [compound 46]
GI50 [1]: 23.4 nM | CC50 [1]: 105 nM | IC (TGI) [1]: 49.6 nM | GI50 [2]: 18.6 nM | CC50 [2]: 247 nM | IC (TGI) [2]: 53.2 nM | GI50 [3]: 285 nM | CC50 [3]: 11700 nM | IC (TGI) [3]: 1350 nM | GI50 [4]: 27.7 nM | CC50 [4]: 97.8 nM | IC (TGI) [4]: 52 nM | GI50 [5]: 23 nM | CC50 [5]: 4250 nM | IC (TGI) [5]: 64.8 nM | GI50 [6]: 26.4 nM | CC50 [6]: 97.4 nM | IC (TGI) [6]: 50.1 nM | GI50 [7]: 426 nM | CC50 [7]: 11700 nM | IC (TGI) [7]: 1350 nM | GI50 [8]: 14.7 nM | CC50 [8]: 59.2 nM | IC (TGI) [8]: 29.6 nM | GI50 [9]: 61.9 nM | CC50 [9]: 11700 nM | IC (TGI) [9]: 398 nM | GI50 [10]: 29.6 nM | CC50 [10]: 107 nM | IC (TGI) [10]: 56.4 nM | GI50 [11]: 29.9 nM | CC50 [11]: 11700 nM | IC (TGI) [11]: 72.4 nM | GI50 [12]: 55.3 nM | CC50 [12]: 11700 nM | IC (TGI) [12]: 304 nM | GI50 [13]: 28.9 nM | CC50 [13]: 2770 nM | IC (TGI) [13]: 61.8 nM | GI50 [14]: 42.9 nM | CC50 [14]: 11700 nM | IC (TGI) [14]: 117 nM

COc1c(C)cc2c(c1O)[C@H]1N[C@@H](C2)[C@H](C#N)N2C1[C@@H]1SC[C@]3(NCCc4c3[nH]c3ccc(O)cc43)C(=O)OC[C@H]2c2c3c(c(C)c(OC(C)=O)c21)OCO3 (stereo partly drawn) [compound 61]
GI50 [1]: 5.14 nM | CC50 [1]: 7970 nM | IC (TGI) [1]: 9.34 nM | GI50 [2]: 4.28 nM | CC50 [2]: 245 nM | IC (TGI) [2]: 9 nM | GI50 [3]: 225 nM | CC50 [3]: 4770 nM | IC (TGI) [3]: 712 nM | GI50 [4]: 2.98 nM | CC50 [4]: 10.5 nM | IC (TGI) [4]: 5.6 nM | GI50 [5]: 2.56 nM | CC50 [5]: 642 nM | IC (TGI) [5]: 8.62 nM | GI50 [6]: 3.56 nM | CC50 [6]: 11.8 nM | IC (TGI) [6]: 6.49 nM | GI50 [7]: 495 nM | CC50 [7]: 13100 nM | IC (TGI) [7]: 1760 nM | GI50 [8]: 1.17 nM | CC50 [8]: 6.92 nM | IC (TGI) [8]: 2.94 nM | GI50 [9]: 4.69 nM | CC50 [9]: 13100 nM | IC (TGI) [9]: 15.4 nM | GI50 [10]: 6.19 nM | CC50 [10]: 60.7 nM | IC (TGI) [10]: 18.8 nM | GI50 [11]: 4.82 nM | CC50 [11]: 525 nM | IC (TGI) [11]: 9.64 nM | GI50 [12]: 17.1 nM | CC50 [12]: 8230 nM | IC (TGI) [12]: 70.9 nM | GI50 [13]: 24.3 nM | CC50 [13]: 104 nM | IC (TGI) [13]: 50.1 nM | GI50 [14]: 6.58 nM | CC50 [14]: 13100 nM | IC (TGI) [14]: 1400 nM
